Source: ChEMBL document CHEMBL1137881, “Synthesis of acyloxymethyl ester prodrugs of the transferable protein farnesyl transferase substrate farnesyl methylenediphosphonate” (Bioorg Med Chem Lett, 2004)

Target: Protein farnesyltransferase (Homo sapiens, UniProt P49354+P49356)
Assay: Inhibition of Farnesyltransferase
Type: protein-complex assay

With CC(C)=CCC/C(C)=C/CC/C(C)=C/COP(=O)(O)CP(=O)(O)O [FARNESYL METHYLENEDIPHOSPHONATE] the IC50 was 160 nM.
